Legend:
MTHFD2 = target: T1, MTHFD2 (Homo sapiens, UniProt P13995); assay: NAD; type: biochemical
T1 sequence (P13995 36-333): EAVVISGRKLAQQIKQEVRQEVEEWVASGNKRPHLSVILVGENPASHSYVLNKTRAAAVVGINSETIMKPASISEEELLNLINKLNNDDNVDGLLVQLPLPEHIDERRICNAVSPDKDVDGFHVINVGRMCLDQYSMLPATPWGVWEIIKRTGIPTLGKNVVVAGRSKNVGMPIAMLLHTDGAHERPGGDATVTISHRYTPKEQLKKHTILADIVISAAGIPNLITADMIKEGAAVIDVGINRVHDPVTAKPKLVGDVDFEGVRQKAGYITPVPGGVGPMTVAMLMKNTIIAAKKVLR

SHMT2 [1] = target: T2, SHMT2 (Homo sapiens, UniProt P34897); assay: coupled SHMT/MTHFD2 assay, NADH fluorescence; type: biochemical; details: Ki = IC50/([S]/KM+[…]); KM of THF […]; His-MTHFD2 in […] molar excess
T2 sequence (P34897 42-504): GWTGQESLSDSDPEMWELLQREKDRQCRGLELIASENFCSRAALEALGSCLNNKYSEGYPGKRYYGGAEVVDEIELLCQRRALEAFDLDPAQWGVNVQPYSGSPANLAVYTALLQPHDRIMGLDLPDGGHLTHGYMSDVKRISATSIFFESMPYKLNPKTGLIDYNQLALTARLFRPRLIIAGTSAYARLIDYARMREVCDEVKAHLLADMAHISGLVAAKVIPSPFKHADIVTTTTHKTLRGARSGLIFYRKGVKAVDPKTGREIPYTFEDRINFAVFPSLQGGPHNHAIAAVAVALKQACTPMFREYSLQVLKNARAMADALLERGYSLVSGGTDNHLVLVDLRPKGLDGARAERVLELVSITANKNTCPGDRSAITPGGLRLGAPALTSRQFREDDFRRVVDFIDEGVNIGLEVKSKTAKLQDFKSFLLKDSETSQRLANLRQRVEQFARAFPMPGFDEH

SHMT1 [2] = target: T3, SHMT1 (Homo sapiens, UniProt P34896); assay: coupled SHMT/MTHFD2 assay, NADH fluorescence; type: biochemical; details: Ki = IC50/([S]/KM+[…]); KM of THF […]; His-MTHFD2 in […] molar excess
T3 sequence (P34896 7-478): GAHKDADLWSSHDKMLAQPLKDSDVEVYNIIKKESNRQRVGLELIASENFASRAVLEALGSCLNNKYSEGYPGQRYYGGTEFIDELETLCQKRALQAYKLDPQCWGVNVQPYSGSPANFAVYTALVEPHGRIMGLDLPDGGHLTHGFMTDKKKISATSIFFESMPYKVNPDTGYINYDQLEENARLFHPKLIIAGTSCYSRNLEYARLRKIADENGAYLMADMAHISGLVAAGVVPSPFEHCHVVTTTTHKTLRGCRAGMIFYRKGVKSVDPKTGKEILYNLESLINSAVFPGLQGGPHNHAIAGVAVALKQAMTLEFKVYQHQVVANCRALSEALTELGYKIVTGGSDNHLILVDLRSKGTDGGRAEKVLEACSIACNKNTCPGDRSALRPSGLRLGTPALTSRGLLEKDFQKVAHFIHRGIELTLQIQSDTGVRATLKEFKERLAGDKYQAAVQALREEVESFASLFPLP

SHMT2 [3] = target: T2, SHMT2; assay: coupled SHMT/MTHFD2 assay, NADH fluorescence; type: biochemical; details: His-MTHFD2 in […] molar excess
SHMT1 [4] = target: T3, SHMT1; assay: coupled SHMT/MTHFD2 assay, NADH fluorescence; type: biochemical; details: His-MTHFD2 in […] molar excess
AICARFTase (ATIC) [5] = target: T4, AICARFTase (ATIC) (Homo sapiens, UniProt P31939); assay: spectrophotometric THF formation from 10-formyl-THF; type: biochemical; details: Ki = IC50/([S]/KM+[…]); KM of […]-formyl-THF […]
AICARFTase (ATIC) [6] = target: T4, AICARFTase (ATIC); assay: spectrophotometric THF formation; type: biochemical
[7] = substrate: Nc1nc2c(c(=O)[nH]1)N[C@@H](CN(C=O)c1ccc(C(=O)N[C@@H](CCC(=O)O)C(=O)O)cc1)CN2; assay: spectrophotometric THF formation; type: biochemical, Homo sapiens

T4 sequence (P31939 whole entry): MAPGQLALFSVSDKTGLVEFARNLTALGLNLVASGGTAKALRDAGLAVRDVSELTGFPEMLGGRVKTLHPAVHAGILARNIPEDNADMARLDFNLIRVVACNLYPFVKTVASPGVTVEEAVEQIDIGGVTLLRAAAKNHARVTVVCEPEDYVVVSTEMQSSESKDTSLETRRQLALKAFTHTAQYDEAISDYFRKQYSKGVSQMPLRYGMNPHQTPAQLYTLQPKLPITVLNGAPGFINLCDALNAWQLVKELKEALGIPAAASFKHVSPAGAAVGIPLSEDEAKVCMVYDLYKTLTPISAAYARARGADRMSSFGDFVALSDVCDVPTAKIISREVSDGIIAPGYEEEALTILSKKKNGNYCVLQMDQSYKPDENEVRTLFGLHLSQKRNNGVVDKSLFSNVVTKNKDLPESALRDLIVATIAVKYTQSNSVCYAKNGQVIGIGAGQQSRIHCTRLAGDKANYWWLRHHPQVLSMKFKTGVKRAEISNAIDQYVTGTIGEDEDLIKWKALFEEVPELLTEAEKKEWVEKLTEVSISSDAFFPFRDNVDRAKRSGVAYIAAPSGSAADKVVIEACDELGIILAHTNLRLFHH

Nc1nc(=O)c2c(CCc3ccc(C(=O)N[C@@H](CCC(=O)O)C(=O)O)cc3)c[nH]c2[nH]1 [PMX]
NI (no inhibition up to 200 μM inhibitor; Ki column) (MTHFD2): > 200 µM
NI (no inhibition up to 200 μM inhibitor; Ki column) (SHMT2 [1]): > 200 µM
NI (no inhibition up to 200 μM inhibitor; Ki column) (SHMT1 [2]): > 200 µM

Nc1nc2c(c(=O)[nH]1)N[C@@H](CNc1ccc(C(=O)N[C@@H](CCC(=O)O)C(=O)O)cc1)CN2 [THF]
Km (SHMT2 [3]): 108 µM
Km (SHMT1 [4]): 62.8 µM

Nc1nc2[nH]c(CCCc3ccc(C(=O)N[C@@H](CCC(=O)O)C(=O)O)s3)cc2c(=O)[nH]1 [AGF94]
NI (no inhibition up to 200 μM inhibitor; Ki column) (MTHFD2): > 200 µM
NI (no inhibition up to 200 μM inhibitor; Ki column) (AICARFTase (ATIC) [5]): > 200 µM

AGF320
NI (no inhibition up to 200 μM inhibitor; Ki column) (MTHFD2): > 200 µM

Nc1nc2c(c(=O)[nH]1)N[C@@H](CN(C=O)c1ccc(C(=O)N[C@@H](CCC(=O)O)C(=O)O)cc1)CN2 [10-formyl-THF]
Km (AICARFTase (ATIC) [6]): 100 µM

B1: GARFTase (Homo sapiens) (protein)
chain: ARVAVLISGTGSNLQALIDSTREPNSSAQIDIVISNKAAVAGLDKAERAGIPTRVINHKLYKNRVEFDSAIDLVLEEFSIDIVCLAGFMRILSGPFVQKWNGKMLNIHPSLLPSFKGSNAHEQALETGVTVTGCTVHFVAEDVDAGQIILQEAVPVKRGDTVATLSERVKLAEHKIFPAALQLVASGTVQLGENGKICWVKEE
Km [7]: 84.8 µM
